From patent US20240245653A1, “PHARMACEUTICAL FORMULATIONS” (SPEPHARM AG, priority 2021, published 2024)
Like-named read-outs stand apart in the source and are kept apart here.

Experiments:
[1] = Dantrolene sodium solubility with HPBCD and parenteral-compatible co-solvent addition (visual inspection); format: physicochemical; settings: for Result (assessed by visual inspection): 7 Mol equivalent HP5 HPBCD solution
Method: This experiment was performed to determine the effects of different parenteral-compatible alcohol- and ketone-based co-solvents on dantrolene sodium solubility, in a 7 Mol equivalent HP5 substituted HPBCD solution. The results are shown in Table 2 below; DNa denotes dantrolene sodium.

[2] = Dantrolene sodium solubility in water only solutions of HPBCD (visual inspection); format: physicochemical; settings: for solubility: aqueous with cosolvent or surfactant or cyclodextrin; for Maximum concentration of dantrolene sodium that could be dissolved: <2 μm particle size
Method: This study was performed to determine the impact of HPBCD on the solubility of dantrolene Sodium. An initial comparison of different HPBCDs was carried out using HP5 and HP7 substituted variants (Cavitron™ W7, Ashland, Inc.), which have a typical degree of substitution (average number of hydroxypropyl groups per cyclodextrin molecule) of 4.1-5.1 and 6.0-8.0 respectively. (Equivalent products, such as Kleptose® HPB (Roquette), which is a low endotoxin burden (<10 IU/g) HP5 substituted β-cyclodextrin with typical molar substitution (i.e. per anhydro glucose subunit) of 0.65 (range 0.58 to 0.68), are also available for commercial scale manufacturing.)
Due to the larger molecular weight of the HP7 variant, more weight of excipient was required to achieve the same molar equivalent concentration compared with the HP5 variant. Overall, HP5 substituted β-cyclodextrin was preferred and it was therefore used for subsequent test formulations.
Further analysis was performed to determine the maximum possible concentration of dantrolene sodium, at different particle sizes, in water only solutions of HP5 substituted β-cyclodextrin. Commercially available samples of dantrolene sodium having particle sizes of <2 μm and <63 μm were tested. […] Results are shown in Table 1 below; DNa denotes dantrolene sodium.

O=C1CN(/N=C/c2ccc(-c3ccc([N+](=O)[O-])cc3)o2)C([O-])=N1.[Na+] [DNa, dantrolene sodium]
Result (assessed by visual inspection) ([1]; DNa 4.5 mg/mL anhydrous salt equivalent, Benzyl Alcohol 1%): Moderate Excess
Result (assessed by visual inspection) ([1]; DNa 4.5 mg/mL anhydrous salt equivalent, Ethanol Abs. 1%): Hazy - Small Excess
Result (assessed by visual inspection) ([1]; DNa 4.5 mg/mL anhydrous salt equivalent, Glycerol 5.18%): Hazy - Small Excess
Result (assessed by visual inspection) ([1]; DNa 4.5 mg/mL anhydrous salt equivalent, N,N-Dimethyl-formamide 2%): Hazy - Small Excess
Result (assessed by visual inspection) ([1]; DNa 4.5 mg/mL anhydrous salt equivalent, Polyethylene Glycol 300 (PEG-300) 5%): Hazy - Small Excess
Result (assessed by visual inspection) ([1]; DNa 4.5 mg/mL anhydrous salt equivalent, Polyethylene Glycol 400 (PEG-400) 5%): Hazy - Small Excess
Result (assessed by visual inspection) ([1]; DNa 4.5 mg/mL anhydrous salt equivalent, Propylene Glycol 5%): Moderate Excess
Result (assessed by visual inspection) ([1]; DNa 4.5 mg/mL anhydrous salt equivalent, Tert-Butanol 5%): Large Excess
Result (assessed by visual inspection) ([1]; DNa 4.5 mg/mL anhydrous salt equivalent, Tetrahydrofuran 2%): Large Excess
Result (assessed by visual inspection) ([1]; DNa 4.55 mg/mL anhydrous salt equivalent, N-Methyl-pyrrolidone 2, 4, 6%): Hazy - Small Excess
Result (assessed by visual inspection) ([1]; DNa 4.75 mg/mL anhydrous salt equivalent, Tert-Butanol 5%): Large Excess
Result (assessed by visual inspection) ([1]; DNa 5.0 mg/mL anhydrous salt equivalent, Benzyl Alcohol 2%): Large Excess
Result (assessed by visual inspection) ([1]; DNa 5.0 mg/mL anhydrous salt equivalent, Ethanol Abs. 20%): Large Excess
Result (assessed by visual inspection) ([1]; DNa 5.0 mg/mL anhydrous salt equivalent, Tert-Butanol 10%): Large Excess
Result (assessed by visual inspection) ([1]; DNa 5.0 mg/mL anhydrous salt equivalent, Tert-Butanol 20%): Large Excess
Effect of parenteral-compatible alcohol- or ketone-based solvents on dantrolene solubility in the presence of HPBCD ([1]; all 15 of the solvents tested, including PEG 300 and PEG 400): reduced dantrolene solubility
Result (assessed by visual inspection) ([2]; DNa 4.46 mg/mL anhydrous salt equivalent (5.16 mg/mL hemiheptahydrate equivalent), particle size <2 μm, 7 molar equivalent HP5 HPBCD, water only): Complete solution
Result (assessed by visual inspection) ([2]; DNa 4.5 mg/mL anhydrous salt equivalent (5.33 mg/mL hemiheptahydrate equivalent), particle size <2 μm, 7 molar equivalent HP5 HPBCD, water only): Complete solution
Result (assessed by visual inspection) ([2]; DNa 4.5 mg/mL anhydrous salt equivalent (5.35 mg/mL hemiheptahydrate equivalent), particle size <63 μm, 7 molar equivalent HP5 HPBCD, water only): Complete solution
Result (assessed by visual inspection) ([2]; DNa 4.55 mg/mL anhydrous salt equivalent (5.36 mg/mL hemiheptahydrate equivalent), particle size <2 μm, 7 molar equivalent HP5 HPBCD, water only): Complete solution
Result (assessed by visual inspection) ([2]; DNa 4.6 mg/mL anhydrous salt equivalent (5.40 mg/mL hemiheptahydrate equivalent), particle size <2 μm, 7 molar equivalent HP5 HPBCD, water only): Slightly Hazy Solution (Incomplete)
Result (assessed by visual inspection) ([2]; DNa 4.65 mg/mL anhydrous salt equivalent (5.47 mg/mL hemiheptahydrate equivalent), particle size <2 μm, 7 molar equivalent HP5 HPBCD, water only): Hazy Solution (Incomplete)
Result (assessed by visual inspection) ([2]; DNa 4.75 mg/mL anhydrous salt equivalent (5.58 mg/mL hemiheptahydrate equivalent), particle size <2 μm, 7 molar equivalent HP5 HPBCD, water only): Hazy Solution (Incomplete)
Result (assessed by visual inspection) ([2]; DNa 4.75 mg/mL anhydrous salt equivalent (5.66 mg/mL hemiheptahydrate equivalent), particle size <63 μm, 7 molar equivalent HP5 HPBCD, water only): Hazy Solution (Incomplete)
Result (assessed by visual inspection) ([2]; DNa 5.0 mg/mL anhydrous salt equivalent (5.95 mg/mL hemiheptahydrate equivalent), particle size <2 μm, 7 molar equivalent HP5 HPBCD, water only): Hazy Solution (Incomplete)
solubility ([2]; hemiheptahydrate equivalent, 9 Mol equivalents of HPBCD, HP5 variant, purified water, read-out: Solubility of dantrolene sodium): 8500 µg/mL
solubility ([2]; hemiheptahydrate equivalent, 9 Mol equivalents of HPBCD, HP7 variant, purified water, read-out: Solubility of dantrolene sodium): 8500 µg/mL
solubility ([2]; thermodynamic from solid, as anhydrous salt equivalent, <63 μm particle size, 7 molar equivalent HP5 HPBCD, water only, read-out: Solubility (maximum concentration of dantrolene sodium that could be dissolved)): 4500 µg/mL
Maximum concentration of dantrolene sodium that could be dissolved ([2]; as anhydrous salt equivalent, 7 molar equivalent HP5 HPBCD, water only): 4.55 mg/mL
Maximum concentration of dantrolene sodium that could be dissolved ([2]; as hemiheptahydrate equivalent, 7 molar equivalent HP5 HPBCD, water only): 5.36 mg/mL
Solubility (maximum concentration of dantrolene sodium that could be dissolved) ([2]; as hemiheptahydrate equivalent, <63 μm particle size, 7 molar equivalent HP5 HPBCD, water only): 5350 µg/mL
